In US8067408B2, “Dual pharmacophores—PDE4-muscarinic antagonistics” (priority 2008, dated 2011):
Where a name gives a salt, the structure may show the parent alone.

| melting point [°C] | Compound |
| --- | --- |
| 110 to 112 | CCc1nc2c(cnn2CC)c(NC2CCOCC2)c1CNC(=O)c1cccc(C(=O)NCc2ccc(OC)c(-c3cccc(CN4CCN[C@@H](C)C4)c3)c2)c1 [Example 213, N-{[1,6-Diethyl-4-(tetrahydro-2H-pyran-4-ylamino)-1H-pyrazolo[3,4-b]pyridin-5-yl]methyl}-N′-[(6-(methyloxy)-3′-{[(3S)-3-methyl-1-piperazinyl]methyl}-3-biphenylyl)methyl]-1,3-benzenedicarboxamide] |
| 112 to 114 | CCc1nc2c(cnn2CC)c(NC2CCOCC2)c1CNC(=O)c1cccc(C(=O)NCc2ccc(Cl)c(-c3cccc(CN4CCN(C)CC4)c3)c2)c1 [Example 219, N-({6-Chloro-3′-[(4-methyl-1-piperazinyl)methyl]-3-biphenylyl}methyl)-N′-{[1,6-diethyl-4-(tetrahydro-2H-pyran-4-ylamino)-1H-pyrazolo[3,4-b]pyridin-5-yl]methyl}-1,3-benzenedicarboxamide] |
| 116 to 119 | CCc1nc2c(cnn2CC)c(NC2CCOCC2)c1CNC(=O)c1cccc(C(=O)NCc2ccc(Cl)c(-c3cccc(CN4CCCNCC4)c3)c2)c1 [Example 221, N-{[6-Chloro-3′-(hexahydro-1H-1,4-diazepin-1-ylmethyl)-3-biphenylyl]methyl}-N′-{[1,6-diethyl-4-(tetrahydro-2H-pyran-4-ylamino)-1H-pyrazolo[3,4-b]pyridin-5-yl]methyl}-1,3-benzenedicarboxamide] |
| 135 to 138 | CCc1nc2c(cnn2CC)c(NC2CCOCC2)c1CNC(=O)c1cccc(C(=O)NCc2ccc(C)c(-c3cccc(CN4CCNCC4)c3)c2)c1 [Example 192, N-{[1,6-Diethyl-4-(tetrahydro-2H-pyran-4-ylamino)-1H-pyrazolo[3,4-b]pyridin-5-yl]methyl}-N′-{[6-methyl-3′-(1-piperazinylmethyl)-3-biphenylyl]methyl}-1,3-benzenedicarboxamide] |
| 100 to 113 | CCc1nc2c(cnn2CC)c(NC2CCOCC2)c1CNC(=O)c1cccc(C(=O)NCc2ccc(F)c(-c3cccc(CN4CCN[C@@H](C)C4)c3)c2)c1 (as salt: TFA) [Example 205, N-{[1,6-Diethyl-4-(tetrahydro-2H-pyran-4-ylamino)-1H-pyrazolo[3,4-b]pyridin-5-yl]methyl}-N′-[(6-fluoro-3′-{[(3S)-3-methyl-1-piperazinyl]methyl}-3-biphenylyl)methyl]-1,3-benzenedicarboxamide] |
| 138 to 140 | CCc1nc2c(cnn2CC)c(NC2CCOCC2)c1CNC(=O)c1cccc(C(=O)NCc2ccc(C)c(-c3cccc(CN4C[C@@H]5C[C@H]4CN5)c3)c2)c1 [Example 197, N-({3′-[(1S,4S)-2,5-Diazabicyclo [2.2.1]hept-2-ylmethyl]-6-methyl-3-biphenylyl}methyl)-N′-{[1,6-diethyl-4-(tetrahydro-2H-pyran-4-ylamino)-1H-pyrazolo[3,4-b]pyridin-5-yl]methyl}-1,3-benzenedicarboxamide] |
| 169 to 173 | CCc1nc2c(cnn2CC)c(NC2CCOCC2)c1CNC(=O)c1cccc(C(=O)NCc2ccc(F)c(-c3cccc(CN4CCN(C)CC4)c3)c2)c1 [Example 200, N-{[1,6-Diethyl-4-(tetrahydro-2H-pyran-4-ylamino)-1H-pyrazolo[3,4-b]pyridin-5-yl]methyl}-AN-({6-fluoro-3′-[(4-methyl-1-piperazinyl)methyl]-3-biphenylyl}methyl)-1,3-benzenedicarboxamide] |
| 127 to 130 | CCc1nc2c(cnn2CC)c(NC2CCOCC2)c1CNC(=O)c1cccc(C(=O)NCc2ccc(Cl)c(-c3cccc(CN4CCNCC4)c3)c2)c1 [Example 222, N-{[6-Chloro-3′-(1-piperazinylmethyl)-3-biphenylyl]methyl}-N′-{[1,6-diethyl-4-(tetrahydro-2H-pyran-4-ylamino)-1H-pyrazolo[3,4-b]pyridin-5-yl]methyl}-1,3-benzenedicarboxamide] |
| 105 to 107 | CCc1nc2c(cnn2CC)c(NC2CCOCC2)c1CNC(=O)c1cccc(C(=O)NCc2ccc(Cl)c(-c3cccc(CN4CCCN(C)CC4)c3)c2)c1 [Example 218, N-({6-Chloro-3′-[(4-methylhexahydro-1H-1,4-diazepin-1-yl)methyl]-3-biphenylyl}methyl)-N′-{[1,6-diethyl-4-(tetrahydro-2H-pyran-4-ylamino)-1H-pyrazolo[3,4-b]pyridin-5-yl]methyl}-1,3-benzenedicarboxamide] |
| 143 to 147 | CCc1nc2c(cnn2CC)c(NC2CCOCC2)c1CNC(=O)c1cccc(C(=O)NCc2ccc(OC)c(-c3cccc(CN4CCCNCC4)c3)c2)c1 [Example 195, N-{[1,6-Diethyl-4-(tetrahydro-2H-pyran-4-ylamino)-1H-pyrazolo[3,4-b]pyridin-5-yl]methyl}-N′-{[3′-(hexahydro-1H-1,4-diazepin-1-ylmethyl)-6-(methyloxy)-3-biphenylyl]methyl}-1,3-benzenedicarboxamide] |
| 118 to 120 | CCc1nc2c(cnn2CC)c(NC2CCOCC2)c1CNC(=O)c1cccc(C(=O)NCc2ccc(C)c(-c3cccc(CN4CCCNCC4)c3)c2)c1 [Example 196, N-{[1,6-Diethyl-4-(tetrahydro-2H-pyran-4-ylamino)-1H-pyrazolo[3,4-b]pyridin-5-yl]methyl}-N′-{[3′-(hexahydro-1H-1,4-diazepin-1-ylmethyl)-6-methyl-3-biphenylyl]methyl}-1,3-benzenedicarboxamide] |
| 109 to 112 | CCc1nc2c(cnn2CC)c(NC2CCOCC2)c1CNC(=O)c1cccc(C(=O)NCc2ccc(C)c(-c3cccc(CN4C[C@@H](C)N[C@@H](C)C4)c3)c2)c1 [Example 211, N-{[1,6-Diethyl-4-(tetrahydro-2H-pyran-4-ylamino)-1H-pyrazolo[3,4-b]pyridin-5-yl]methyl}-N′-[(3′-{[(3R,5S)-3,5-dimethyl-1-piperazinyl]methyl}-6-methyl-3-biphenylyl)methyl]-1,3-benzenedicarboxamide] |

Continued, molecule first:

| Compound | melting point [°C] |
| --- | --- |
| CCc1nc2c(cnn2CC)c(NC2CCOCC2)c1CNC(=O)c1cccc(C(=O)NCc2ccc(OC)c(-c3cccc(CN4C[C@@H]5C[C@H]4CN5)c3)c2)c1 [Example 194, N-{[3′-[(1S,4S)-2,5-Diazabicyclo [2.2.1]hept-2-ylmethyl]-6-(methyloxy)-3-biphenylyl]methyl}-N′-{[1,6-diethyl-4-(tetrahydro-2H-pyran-4-ylamino)-1H-pyrazolo[3,4-b]pyridin-5-yl]methyl}-1,3-benzenedicarboxamide] | 129 to 131 |
| CCc1nc2c(cnn2CC)c(NC2CCOCC2)c1CNC(=O)c1cc(C)cc(C(=O)NCc2ccc(C)c(Br)c2)c1 | 117 to 119 |
| CCc1nc2c(cnn2CC)c(NC2CCOCC2)c1CNC(=O)c1cc(C)cc(C(=O)NCc2ccc(Cl)c(Br)c2)c1 | 212 to 214 |
| CCc1nc2c(cnn2CC)c(NC2CCOCC2)c1CNC(=O)c1cccc(C(=O)NCc2cc(Cl)cc(-c3cccc(CN4C[C@@H](C)N[C@@H](C)C4)c3)c2)c1 [Example 429, N-[(5-Chloro-3′-{[(3R,5S)-3,5-dimethyl-1-piperazinyl]methyl}-3-biphenylyl)methyl]-N′-{[1,6-diethyl-4-(tetrahydro-2H-pyran-4-ylamino)-1H-pyrazolo[3,4-b]pyridin-5-yl]methyl}-1,3-benzenedicarboxamide] | 112 to 114 |
| CCc1nc2c(cnn2CC)c(NC2CCOCC2)c1CNC(=O)c1cccc(C(=O)NCc2cc(Cl)cc(-c3cccc(CN4C[C@@H]5C[C@H]4CN5)c3)c2)c1 [Example 431, N-({5-Chloro-3′-[(1S,4S)-2,5-diazabicyclo [2.2.1]hept-2-ylmethyl]-3-biphenylyl}methyl)-N′-{[1,6-diethyl-4-(tetrahydro-2H-pyran-4-ylamino)-1H-pyrazolo[3,4-b]pyridin-5-yl]methyl}-1,3-benzenedicarboxamide] | 130 to 133 |
| CCc1nc2c(cnn2CC)c(NC2CCOCC2)c1CNC(=O)c1cc(C)cc(C(=O)NCc2ccc(OC)c(-c3cccc(CC4CCN(C)CC4)c3)c2)c1 [Example 427, N-{[1,6-Diethyl-4-(tetrahydro-2H-pyran-4-ylamino)-1H-pyrazolo[3,4-b]pyridin-5-yl]methyl}-5-methyl-N′-({6-(methyloxy)-3′-[(1-methyl-4-piperidinyl)methyl]-3-biphenylyl}methyl)-1,3-benzenedicarboxamide] | 115 to 117 |
| CCc1nc2c(cnn2CC)c(NC2CCOCC2)c1CNC(=O)c1cccc(C(=O)NCc2cc(Cl)cc(-c3cccc(CN4CCCNCC4)c3)c2)c1 [Example 430, N-{[5-Chloro-3′-(hexahydro-1H-1,4-diazepin-1-ylmethyl)-3-biphenylyl]methyl}-N′-{[1,6-diethyl-4-(tetrahydro-2H-pyran-4-ylamino)-1H-pyrazolo[3,4-b]pyridin-5-yl]methyl}-1,3-benzenedicarboxamide] | 121 to 124 |
| O=C(O)c1cccc(C(=O)NCc2ccc(F)c(-c3cccc(CO)c3)c2)c1 | 169 to 171 |
| CCc1nc2c(cnn2CC)c(NC2CCOCC2)c1CNC(=O)c1cc(C)cc(C(=O)NCc2cccc(-c3cccc(CC4CCN(C)CC4)c3)c2)c1 [Example 425, N-{[1,6-Diethyl-4-(tetrahydro-2H-pyran-4-ylamino)-1H-pyrazolo[3,4-b]pyridin-5-yl]methyl}-5-methyl-N′-({3′-[(1-methyl-4-piperidinyl)methyl]-3-biphenylyl}methyl)-1,3-benzenedicarboxamide] | 119 to 121 |
| CCc1nc2c(cnn2CC)c(NC2CCOCC2)c1CNC(=O)c1cccc(C(=O)O)c1 | 207 to 209 |
| CCc1nc2c(cnn2CC)c(NC2CCOCC2)c1CNC(=O)c1cccc(C(=O)NCc2ccc(F)c(-c3cccc(CN4CCN(C(C)C)CC4)c3)c2)c1 [Example 203, N-{[1,6-Diethyl-4-(tetrahydro-2H-pyran-4-ylamino)-1H-pyrazolo[3,4-b]pyridin-5-yl]methyl}-N′-[(6-fluoro-3′-{[4-(1-methylethyl)-1-piperazinyl]methyl}-3-biphenylyl)methyl]-1,3-benzenedicarboxamide] | 165 to 169 |
